The values below come from ChEMBL document CHEMBL3856269, “Anti-inflammatory activity effect of 2-substituted-1,4,5,6-tetrahydrocyclopenta[b]pyrrole on TPA-induced skin inflammation in mice” (2016).

Common to all, as to format: functional
The test system of test [1] is Mus musculus. Nature of the test: Anti-inflammatory activity in TPA-induced Balb/c mouse ear edema model assessed as reduction in TPA-induced ear edema at 0.75 uM administered topically 6 mins prior to TPA administration measured after 6 hrs relative to control. Also noted: scale not given: the % may be the effect or the level left.
Test [2] relates to Mus musculus. Briefly: In vivo inhibition of IKK-mediated NF-kB activation in Balb/c mouse assessed as decrease in TPA-induced phosphorylation of IKBalpha at Ser-32 residue at 0.75 uM administered topically 6 mins prior to TPA administration measured after 6 hrs by immunohistochemical analysis.
Test [3] has as its system Mus musculus. Briefly: Potency index, ratio of compound to celecoxib potency for reduction in TPA-induced ear edema in Balb/c mouse.
The subject of test [4] is Mus musculus. Briefly: In vivo inhibition of IKK-mediated NF-kB activation in Balb/c mouse assessed as decrease in TPA-induced phospho-Ser536 p65 expression at 0.75 uM administered topically 6 mins prior to TPA administration measured after 6 hrs by immunohistochemical analysis.
Test [5] deals with Mus musculus. Nature of the test: In vivo inhibition of IKK activation in Balb/c mouse at 0.75 uM administered topically 6 mins prior to TPA administration measured after 6 hrs by immunohistochemical analysis.
Test [6] relates to Mus musculus. Briefly: In vivo inhibition of IKK-mediated NF-kB activation in Balb/c mouse assessed as decrease in TPA-induced IL-6 expression at 0.75 uM administered topically 6 mins prior to TPA administration measured after 6 hrs by immunohistochemical analysis.
The test system of test [7] is Mus musculus. Briefly: Anti-inflammatory activity in Balb/c mouse assessed as reduction in TPA-induced epidermal hyperplasia at 0.75 uM administered topically 6 mins prior to TPA administration measured after 6 hrs by hematoxylin and eosin staining based microscopic analysis.
The subject of test [8] is Mus musculus. Briefly: Anti-inflammatory activity in Balb/c mouse assessed as reduction in TPA-induced dense dermal leukocyte infiltration at 0.75 uM administered topically 6 mins prior to TPA administration measured after 6 hrs by hematoxylin and eosin staining based microscopic analysis.
The subject of test [9] is Mus musculus. Nature of the test: In vivo inhibition of IKK-mediated NF-kB activation in Balb/c mouse assessed as decrease in TPA-induced IL-1beta expression at 0.75 uM administered topically 6 mins prior to TPA administration measured after 6 hrs by immunohistochemical analysis.
Test [10] concerns Mus musculus. Briefly: In vivo inhibition of IKK-mediated NF-kB activation in Balb/c mouse assessed as decrease in TPA-induced COX2 expression at 0.75 uM administered topically 6 mins prior to TPA administration measured after 6 hrs by immunohistochemical analysis.
Test [11] relates to Mus musculus. Briefly: Anti-inflammatory activity in Balb/c mouse assessed as reduction in TPA-induced hyperkeratosis at 0.75 uM administered topically 6 mins prior to TPA administration measured after 6 hrs by hematoxylin and eosin staining based microscopic analysis.
Test [12] concerns Mus musculus. Briefly: In vivo inhibition of IKK-mediated NF-kB activation in Balb/c mouse assessed as decrease in TPA-induced p65 expression at 0.75 uM administered topically 6 mins prior to TPA administration measured after 6 hrs by immunohistochemical analysis.
The test system of test [13] is Mus musculus. Nature of the test: In vivo inhibition of IKK-mediated NF-kB activation in Balb/c mouse assessed as decrease in TPA-induced TNFalpha expression at 0.75 uM administered topically 6 mins prior to TPA administration measured after 6 hrs by immunohistochemical analysis.

Calls of active or inactive are those of the source. The rule behind the calls is not given here.

For `COCCCn1c(-c2ccccc2)cc2c1CCC2`, the Activity in test [1] is 1.46%.

Consider `CCCn1c(-c2ccccc2)cc2c1CCC2`, for which the inhibition result in [2], in [4], in test [5], in test [6], in test [9] and in [10] was “Active” in each case. Also, the inhibition entry in [12] and in [13] was “Active” throughout. Moreover, the Ratio in [3] is reported as 3.2. Also, the Activity in test [1] is 57.31%. Also, the outcome in test [7], in [8] and in [11] was Active.

As to `c1ccc(CCn2c(-c3ccccc3)cc3c2CCC3)cc1`, the Activity in [1] was -1.86%.

In the case of `Cc1ccc(-c2cc3c(n2-c2ccccc2)CCC3)cc1`, the Activity in test [1] was found to be 0.53%.

For the compound `Clc1ccc(-n2c(-c3ccccc3)cc3c2CCC3)cc1`, in [1], the Activity amounted to 19.41%.

As for `c1ccc(-c2cc3c(n2-c2ccccc2)CC(c2ccccc2)C3)cc1` (configuration not stated), the Activity in test [1] is listed as 16.09%.

On to `C#CCn1c(-c2ccc(C)cc2)cc2c1CCC2`, for which the Activity in test [1] is 4.92%.

Regarding `CC(C)(C)c1cc2c([nH]1)CCC2`, in test [1], the Activity is 9.71%.

In the case of `Cc1ccc(-c2cc(C(F)(F)F)nn2-c2ccc(S(N)(=O)=O)cc2)cc1` [CELECOXIB], the Activity in test [1] is reported as 17.95%. The inhibition entry in [4], in test [6], in [9], in test [10], in test [12] and in [13] was “Active” in each case. Also, the result in [7], in test [8] and in test [11] was Active.

Turning to `CCn1c(-c2ccccc2)cc2c1CCC2`, in [1], the Activity stood at 13.56%.

Regarding `CCCCn1c(-c2ccccc2)cc2c1CCC2`, the Activity in test [1] is recorded as -9.17%.

For `CC(C)(C)c1cc2c(n1-c1ccccc1)CCC2`, in [1], the Activity is recorded as -0.53%.

Consider `c1ccc(CCCn2c(-c3ccccc3)cc3c2CCC3)cc1`, for which the Activity in [1] is -13.56%.

As to `C#CCn1c(-c2ccccc2)cc2c1CCC2`, in [1], the Activity was 8.77%.

Consider `O=[N+]([O-])c1ccc(-n2c(-c3ccccc3)cc3c2CCC3)cc1`, for which the Activity in test [1] is reported as -12.9%.

In the case of `c1ccc(Cn2c(-c3ccccc3)cc3c2CCC3)cc1`, the Activity in test [1] came to 25.66%.

For `Brc1ccc(-n2c(-c3ccccc3)cc3c2CCC3)cc1`, the Activity in test [1] was determined as 15.96%.

Turning to `c1ccc(-c2cc3c(n2-c2ccccc2)CCC3)cc1`, the Activity in test [1] is given as -0.93%.

On to `COc1ccc(-c2cc3c([nH]2)CCC3)cc1`, for which, in [1], the Activity was 17.55%.

Consider `Clc1ccccc1-n1c(-c2ccccc2)cc2c1CCC2`, for which the Activity in test [1] is given as -6.78%.

In the case of `COc1ccc(Cn2c(-c3ccc(C)cc3)cc3c2CCC3)cc1`, in [1], the Activity amounted to 7.71%.

For `COc1ccc(Cn2c(-c3ccccc3)cc3c2CCC3)cc1`, in [1], the Activity is given as 2.93%.

Take `c1ccc(-c2cc3c(n2C2CCCCC2)CCC3)cc1`: in test [1], the Activity is given as 19.02%.

Turning to `CC(C)Cn1c(-c2ccccc2)cc2c1CCC2`, the Activity in test [1] was 6.91%.

In the case of `c1ccc(-c2cc3c([nH]2)CCC3)cc1`, the Activity in [1] is reported as 10.23%.

For the compound `c1ccc(-c2cc3c(n2C2CC2)CCC3)cc1`, the Activity in test [1] is recorded as 20.88%.
